Earlier results on 2 compounds are cited in publication PMC8155022 (Scientific Reports, 2021).

Data set [1] has as its system activated CCR6+ T cells from human peripheral blood. More on the design: method as in PMID 27905482. The conditions noted are these: cited from earlier work.
Data set [2] has as its system patients with moderate to severe plaque psoriasis. More on the design: method as in earlier work. The conditions noted are these: 4 weeks of treatment, cited from earlier work.

As to `COc1nc2ccc([C@@](O)(c3ccc(C)nc3C)c3cnnn3C)cc2c(Cl)c1Cc1ccc(C(F)(F)F)cc1` [JNJ-54271074], in data set [1], the IL-10 production entry is “slightly increased” and the IL-17A production entry is “greatly reducing”.

In the case of `CCS(=O)(=O)c1ccc(CNC(=O)c2cnc3c(c2)CN(C[C@H]2CC[C@H](C(F)(F)F)CC2)[C@H]3C(C)C)nc1` [VTP-43742], the “reduction of IL-17A and IL-17F in patient serum” value in data set [2] is given as “up to 75%”. The “efficacy in patients with moderate to severe plaque psoriasis” value in data set [2] (Phase 2a) is on record as “showed efficacy”.
